Measurements as given in US10988478B1, “Pyrazolo[1,5a]pyrimidine derivatives as IRAK4 modulators” (Genentech, Inc., priority 2015, dated 2021).
pKi: −log10 of the molar value.

molecular target: human IRAK4 (Homo sapiens (Human), UniProt Q9NWZ3); assay: IRAK4 kinase inhibition, Transcreener fluorescence polarization ADP assay; assay type: biochemical; conditions: recombinant full-length His6-IRAK4; 125 uM ATP; 90 min; Ki computed using ATP Km 642 uM
Protocol: Compounds were assayed for inhibition of human IRAK4 and IRAK1 catalytic activity using recombinant enzyme produced from insect cells. Full-length IRAK4 protein, carrying an N-terminal His6-Tag, was obtained from Life Technologies (Carlsbad, Calif., USA). The IRAK1 construct was produced internally and was comprised of IRAK1 residues Arg194 to Ser712, preceded by an NH2-terminal His6 tag and the coding sequence for glutathione-S-transferase.

human IRAK4, sequence (Q9NWZ3 whole entry, the tested form may be a part): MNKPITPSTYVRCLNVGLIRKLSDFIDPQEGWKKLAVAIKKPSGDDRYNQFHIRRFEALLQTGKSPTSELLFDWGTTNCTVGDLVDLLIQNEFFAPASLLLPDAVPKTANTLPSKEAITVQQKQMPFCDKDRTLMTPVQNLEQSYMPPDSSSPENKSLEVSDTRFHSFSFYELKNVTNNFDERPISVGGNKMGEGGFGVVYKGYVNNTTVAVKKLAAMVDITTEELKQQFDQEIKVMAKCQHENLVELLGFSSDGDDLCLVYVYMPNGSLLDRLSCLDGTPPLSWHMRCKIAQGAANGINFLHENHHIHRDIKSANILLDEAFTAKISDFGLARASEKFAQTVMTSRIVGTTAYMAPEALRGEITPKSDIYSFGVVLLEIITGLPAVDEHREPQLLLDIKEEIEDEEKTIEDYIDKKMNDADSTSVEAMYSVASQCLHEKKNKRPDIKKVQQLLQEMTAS

| Compound | pKi |
| --- | --- |
| COCC1CN(c2cc3c(cc2NC(=O)c2cnn4cccnc24)CC(C)(C)O3)CCO1 (stereo not drawn) [Example 198, N-(6-(2-(methoxymethyl)morpholino)-2,2-dimethyl-2,3-dihydrobenzofuran-5-yl)pyrazolo[1,5-a]pyrimidine-3-carboxamide] | 6.85 |
| CC1(C)Cc2cc(NC(=O)c3cnn4cccnc34)c(N3CCCC3CO)cc2O1 (stereo not drawn) [Example 201, N-(6-(2-(hydroxymethyl)pyrrolidin-1-yl)-2,2-dimethyl-2,3-dihydrobenzofuran-5-yl)pyrazolo[1,5-a]pyrimidine-3-carboxamide] | 7.55 |
| CC1(C)Cc2cc(NC(=O)c3cnn4cccnc34)c(N3CCCC(c4ncc[nH]4)C3)cc2O1 (stereo not drawn) [Example 202, N-(6-(3-(1H-imidazol-2-yl)piperidin-1-yl)-2,2-dimethyl-2,3-dihydrobenzofuran-5-yl)pyrazolo[1,5-a]pyrimidine-3-carboxamide] | 6.16 |
| CN(Cc1ccc(C#N)cc1)c1cc2c(cc1NC(=O)c1cnn3cccnc13)CC(C)(C)O2 [Example 205, N-(6-((4-cyanobenzyl)(methyl)amino)-2,2-dimethyl-2,3-dihydrobenzofuran-5-yl)pyrazolo[1,5-a]pyrimidine-3-carboxamide] | 7.07 |
| CC1(C)Cc2cc(NC(=O)c3cnn4cccnc34)c(N3CCC(n4ccnc4)CC3)cc2O1 [Example 206, N-(6-(4-(1H-imidazol-1-yl)piperidin-1-yl)-2,2-dimethyl-2,3-dihydrobenzofuran-5-yl)pyrazolo[1,5-a]pyrimidine-3-carboxamide] | 8.47 |
| CC1(C)Cc2cc(NC(=O)c3cnn4cccnc34)c(N3CCCC(F)(F)CC3)cc2O1 [Example 207, N-(6-(4,4-difluoroazepan-1-yl)-2,2-dimethyl-2,3-dihydrobenzofuran-5-yl)pyrazolo[1,5-a]pyrimidine-3-carboxamide] | 7.77 |
| CC1(C)Cc2cc(NC(=O)c3cnn4cccnc34)c(N3C[C@@H]4[C@H](C3)[C@H]4C(N)=O)cc2O1 [Example 208, N-(6-((1R,5S,6r)-6-carbamoyl-3-azabicyclo[3.1.0]hexan-3-yl)-2,2-dimethyl-2,3-dihydrobenzofuran-5-yl)pyrazolo[1,5-a]pyrimidine-3-carboxamide] | 7.82 |
| CNC(=O)[C@H]1[C@@H]2CN(c3cc4c(cc3NC(=O)c3cnn5cccnc35)CC(C)(C)O4)C[C@@H]21 [Example 212, N-(2,2-dimethyl-6-((1R,5S,6r)-6-(methylcarbamoyl)-3-azabicyclo[3.1.0]hexan-3-yl)-2,3-dihydrobenzofuran-5-yl)pyrazolo[1,5-a]pyrimidine-3-carboxamide] | 7.25 |

Now from value to molecule:

| pKi | Compound |
| --- | --- |
| 6.77 | CC1(C)Cc2cc(NC(=O)c3cnn4cccnc34)c(N3CC4CC(F)(F)C4C3)cc2O1 (stereo not drawn) [Example 199, N-(6-(6,6-difluoro-3-azabicyclo[3.2.0]heptan-3-yl)-2,2-dimethyl-2,3-dihydrobenzofuran-5-yl)pyrazolo[1,5-a]pyrimidine-3-carboxamide] |
| 7.66 | CC1(C)Cc2cc(NC(=O)c3cnn4cccnc34)c(N3C[C@H]4CCC(F)(F)[C@H]4C3)cc2O1 [Example 200, N-(6-((3aR,6aS)-4,4-difluorohexahydrocyclopenta[c]pyrrol-2(1H)-yl)-2,2-dimethyl-2,3-dihydrobenzofuran-5-yl)pyrazolo[1,5-a]pyrimidine-3-carboxamide] |
| 7.82 | CC1(C)Cc2cc(NC(=O)c3cnn4cccnc34)c(N3C[C@@H](F)[C@@H](F)C3)cc2O1 [Example 203, N-(6-((3R,4S)-3,4-difluoropyrrolidin-1-yl)-2,2-dimethyl-2,3-dihydrobenzofuran-5-yl)pyrazolo[1,5-a]pyrimidine-3-carboxamide] |
| 6.14 | CC1(C)Cc2cc(NC(=O)c3cnn4cccnc34)c(N3CC4(CCC4(F)F)C3)cc2O1 [Example 204, N-(6-(5,5-difluoro-2-azaspiro[3.3]heptan-2-yl)-2,2-dimethyl-2,3-dihydrobenzofuran-5-yl)pyrazolo[1,5-a]pyrimidine-3-carboxamide] |
